In patent US20230398228A1, “ERIBULIN-BASED ANTIBODY-DRUG CONJUGATES AND METHODS OF USE” (EISAI R&D MANAGEMENT CO., LTD., priority 2016, published 2023):
pEC50: −log10 of the molar value. Values joined by “and” are separate entries in the source; they are usually repeats but may differ in a detail not shown here. Equal values may be shown once.

Legend:
[1] = system: HL-60 cells; experiment: Bystander killing assay, Nuclight Red HL-60; format: cell-based, human; conditions: Homo sapiens; HL-60 cells treated with free eribulin; read-out: EC50, HL-60 (eribulin)
Experimental: The day before study commencement, Nuclight™ Green (NLG) IGROV1 cells were seeded at 5,000 cells/well into 96-well round bottom plates, followed by centrifugation at 1,000 rpm for 3 min at room temperature to ensure formation of a cell pellet. The plate was placed in the vessel of an Incucyte Zoom® (EssenBio science) and incubated at 37° C./5% CO2 overnight. The program was set to collect images of cell growth, and to determine total numbers of nuclear green-stained and nuclear red-stained cells as well as phase-confluency of the cells every two hours. […] 50 μL of cytotoxin solution was added to the NLG-IGROV1 cells and incubated for 30 min. During the incubation period, Nuclight™ Red (NLR) HL-60 (FR^neg) cells were diluted to 2×10^5, 1×10^5 or 5×10^4 cell/mL with fresh media. 50 μL of the NLR-HL60 cell suspension or medium alone was added to the NLG-IGROV1 wells, followed by centrifugation at 1,000 rpm for 3 min at room temperature to ensure re-formation of the cell pellet. The plate was placed back into the vessel of Incucyte Zoom (EssenBio science) and incubated at 37° C./5% CO2 for up to 5 days. Relative cell growth of NLG-IGROV1 was determined by comparison to no ADC or free drug alone added samples using green cell counts. Relative cell growth of HL60 was done similarly, except that red cell count was determined. Determination of IC50 values for both NLG-IGROV1 and NLR-HL-60 was determined using Prism (GraphPad).
In order to assess bystander killing activity, an assay was set up using two labeled cell lines. […] Cytotoxicity was monitored by an Incucyte Zoom® cell imager.

[2] = Maximum tolerated dose of eribulin in CD-1 mice; format: in vivo, mouse; conditions: for toxicity, in words: q4dx3
Experimental: Naïve CD-1 mice were injected intravenously with 200 μL of eribulin according to the schedule in Table 22. Body weight was measured three times a week including prior to dose on each dosing day and 24 hours following each dose. […] The terminal body weight was measured and recorded. Euthanized mice at the end of the study (and if any mouse euthanized or found dead during the study) were processed for necropsy. Organs were examined for signs of tissue damage.

[3] = system: human BM-MSCs co-cultured with MKN-74 cells; experiment: 3D co-culture system (rStomach, zPredicta), MSC differentiation by flow cytometry; format: cell-based; conditions: 7 days treatment, MORAb-202 10 nM, MORAb-003 10 nM, eribulin […] and 0.2 nM (Table 41)
Experimental: All mesenchymal stem cell (MSC)-containing 3D co-culture experiments were conducted in zPredicta, using organ-specific 3D extracellular matrix systems such as rStomach™. Bone marrow mesenchymal stem cells (BM-MSCs) in rStomach™ were co-cultured with the Nuc Red Light MKN-74 gastric cancer cell line in quadruplicate in 48-well format for 12 days. […] Prior to culture, BM-MSCs were evaluated for target antigen expression and for markers of MSC differentiation (Table 40) by flow cytometry.
Controls included untreated and vehicle-treated (PBS and DMSO) cultures. MSC differentiation was monitored by light microscopy. Once visible differentiation was observed, samples were harvested for staining and flow cytometry analysis.
Bone marrow mesenchymal stem cells (BM-MSCs) in rStomach™ (zPredicta) were co-cultured with the MKN-74 gastric cancer cell line for 12 days. […] Once visible MSC differentiation was observed by light microscopy, samples were harvested for staining and flow cytometry analysis.

[4] = system: IGROV1 cells; experiment: Crystal Violet cytotoxicity assay (Example 4), IGROV1; format: cell-based, human; conditions: Homo sapiens, IGROV-1, mean of replicate experiments, read-out: Cytotoxicity IC50 (nM), IGROV1 (FR^hi, MSLN^neg)
Experimental: (§1) Test reagents were serial diluted 1:3 in 2 mL deep-well dilution plates, starting at 200 nM (10 dilutions total). […] Medium was then discarded. […] Plates were read at 570 nm. Data was analyzed using GraphPad Prism 6.

[5] = system: NCI-H2110 cells; experiment: Crystal Violet cytotoxicity assay (Example 4), NCI-H2110; format: cell-based, human; conditions: Homo sapiens, mean of replicate experiments, read-out: Cytotoxicity IC50 (nM), NCI-H2110 (FR^med, MSLN^med)
Experimental: as §1

[6] = system: A431 cells; experiment: Crystal Violet cytotoxicity assay (Example 4), A431 (parental); format: cell-based, human; conditions: Homo sapiens, A-431, mean of replicate experiments, read-out: Cytotoxicity IC50 (nM), A431 (FR^neg, MSLN^neg)
Experimental: Test reagents were serial diluted 1:3 in 2 mL deep-well dilution plates, starting at 200 nM (10 dilutions total). […] Medium was then discarded. […] Plates were read at 570 nm. Data was analyzed using GraphPad Prism 6. […]
MAL-PEG2-Val-Cit-PAB-eribulin (ER-001159569) was conjugated to eight different anti-human mesothelin antibodies (Table 1). Binding affinities of the parental antibodies were determined by BIAcore analysis, as described above in section 1.6.1. Aggregation levels for all anti-human mesothelin ADCs were determined by SEC-HPLC and the DAR was analyzed using HIC-HPLC. In vitro potency was evaluated using a Crystal Violet cell-based cytotoxicity assay in A3 (A431 stabily transfected with human mesothelin (MSLN), MSLN^hi), OVCAR3 (human ovarian, MSLN^hi), HEC-251 (human endometroid, MSLN^med), H226 (human lung squamous cell mesothelioma, MSLN^lo), and A431 parental (MSLN^neg) cells.

[7] = system: NCI-N87 cells; experiment: Crystal Violet cytotoxicity assay (Example 4), NCI-N87; format: cell-based, human; conditions: Homo sapiens; NCI-N87-Luc cells; mean of replicate experiments; read-out: Cytotoxicity IC50 (nM), NCI-N87-Luc (FR^lo, MSLN^med, her2^hi)
Experimental: as §1

[8] = system: BT-474 cells; experiment: Crystal Violet cytotoxicity assay (Example 4), BT-474; format: cell-based, human; conditions: Homo sapiens; BT-474 cells; mean of replicate experiments; read-out: Cytotoxicity IC50 (nM), BT-474 (FR^neg, MSLN^neg, her2^hi)
Experimental: as §1

[9] = system: ZR-75 cells; experiment: Crystal Violet cytotoxicity assay (Example 4), ZR-75; format: cell-based, human; conditions: Homo sapiens, ZR75; ZR-75-1 cells; mean of replicate experiments; read-out: Cytotoxicity IC50 (nM), ZR-75-1 (FR^neg, MSLN^neg, her2^med)
Experimental: as §1

[10] = system: NUGC3 cells; experiment: Crystal Violet cytotoxicity assay (Example 4), NUGC3; format: cell-based, human; conditions: Homo sapiens, NUGC-3; NUGC3-Luc cells; mean of replicate experiments; read-out: Cytotoxicity IC50 (nM), NUGC3-Luc (FR^neg, MSLN^neg, her2^neg)
Experimental: as §1

[11] = in vivo; conditions: female, NMRI nu/nu, mouse, iv
Experimental: (§2) Tumor fragments were implanted subcutaneously into the left flank of 40 NMRI nu/nu female mice, and tumor volume was monitored. Mice with a tumor volume of 100-160 mm^3 were randomized into one of four groups (Groups A-D, Table 39). […] Each group consisted of 8 animals. The day of randomization was designated as Day 0 of the experiment.
(§3) Tumor growth was evaluated by the measurement of two perpendicular diameters twice weekly, and tumor volume (TV), relative tumor volume (RTV) and treated/control (T/C) values were calculated. Body weight was also evaluated twice weekly as a parameter for toxicity, with the calculation of the body weight per group and body weight changes (BWC) relative to the start of treatment. Animals were sacrificed when the individual tumor volume exceeded 1 cm^3, or at the end of the study.

[12] = in vivo; conditions: female, NMRI nu/nu, mouse, iv; remark: listed apart in the source
Experimental: as §2, §3

[13] = system: Endo-12961 endometrial cancer patient-derived xenograft; experiment: Endometrial cancer PDx model Endo-12961; conditions: for anti-tumor activity, in words: single i.v. dose
Experimental: as §2, §3

[14] = system: Endo-10590 endometrial cancer patient-derived xenograft; experiment: Endometrial cancer PDx model Endo-10590; conditions: for anti-tumor activity, in words: single i.v. dose
Experimental: as §2, §3

[15] = MORAb-202 5 mg/kg or eribulin 3.2 mg/kg

With `C=C1C[C@@H]2CC[C@@]34C[C@H]5O[C@H]6[C@@H](O3)[C@H]3O[C@H](CC[C@@H]3O[C@H]6[C@H]5O4)CC(=O)C[C@@H]3[C@@H](OC)[C@@H](C[C@H](O)CN)O[C@H]3C[C@H]3O[C@@H](CC[C@@H]1O2)C[C@@H](C)C3=C` [eribulin] as the molecule, how does the pEC50 [1] read?
The pEC50 was 9.77.

What about the “clinical finding, in words” value ([2]; 3.2 mg/kg q4dx3, after the second dose) of the same molecule?
Its value is “piloerection in all three mice”.

And the “body weight loss of individual mouse” value ([2]; 3.2 mg/kg q4dx3, after the third dose)?
The value was 17% and 8%.

What about the “toxicity, in words” value ([2]; 3.2 mg/kg) of the same molecule?
Its value is “severe weight loss”.

And the “toxicity, in words” value ([2]; doses up to 1.6 mg/kg)?
The value was “no toxicity”.

What about the “body weight loss or clinical findings, in words” value ([2]; doses up to 1.6 mg/kg, q4dx3, i.v.) of the same molecule?
The value was “No significant body weight loss or clinical findings indicating toxicity”.

What about the “gross organ changes at necropsy, in words” value ([2]; mouse, in vivo) of the same molecule?
Its value is “No gross changes”.

And the MTD ([2]; mouse, in vivo, iv, q4dx3, i.v., CD-1 mice)?
The MTD was 1.6 mg/kg.

What about the “Percentage of live cells, Pericytes” value ([3]; PBS 14.6%) of the same molecule?
Its value is 25.8%.

What about the “Percentage of live cells, Adipocytes” value ([3]; PBS […]) of the same molecule?
The value was 2.68%.

And the “Percentage of live cells, MSCs” value ([3]; PBS […])?
The value was 29.9%.

What about the IC50 [4] of the same molecule?
The IC50 was 0.32 nM.

What about the IC50 [5] of the same molecule?
Its IC50 is 0.199 nM.

And the IC50 [6]?
The IC50 was 0.653 nM.

And the IC50 [7]?
Its IC50 is 0.257 nM.

What about the IC50 [8] of the same molecule?
Its IC50 is 0.151 nM.

What about the IC50 [9] of the same molecule?
Its IC50 is 0.236 nM.

What about the IC50 [10] of the same molecule?
Its IC50 is 0.445 nM.

What about the MTD [11] of the same molecule?
Its MTD is 3.2 mg/kg.

And the MTD [12]?
The MTD was 3.2 mg/kg.

What about the “tumor re-growth during the study, in words” value [13, 15] of the same molecule?
Its value is “began to re-grow”.

What about the “anti-tumor activity, in words” value [13, 15] of the same molecule?
Its value is “significant anti-tumor activity”.

And the “anti-tumor activity, in words” value ([13]; eribulin 0.1 mg/kg)?
Its value is “no significant anti-tumor activity”.

What about the “effect on body weight, in words” value ([13]; first week post-treatment) of the same molecule?
The value was “temporarily affected body weight”.

What about the “tumor re-growth during the study, in words” value [14, 15] of the same molecule?
Its value is “began to re-grow”.

And the “anti-tumor activity, in words” value [14, 15]?
Its value is “significant anti-tumor activity”.

What about the “anti-tumor activity, in words” value ([14]; eribulin 0.1 mg/kg) of the same molecule?
The value was “no significant anti-tumor activity”.

And the “effect on body weight, in words” value ([14]; first week post-treatment)?
The value was “temporarily affected body weight”.
